Source: patent US10350220B2, “Methods and materials for reducing suppression of immune function” (Mayo Foundation for Medical Education and Research, priority 2011, dated 2019)

System: CD14+ cells co-cultured with a renal cell tumor line (ACHN)
Assay: HLA-DR expression of isolated CD14+ cells co-cultured with ACHN renal cell tumor line, flow cytometry
Details: CD14+ cells exposed to ACHN cancer cells, RU486 5 or 20 μM added day 0; compared with cells exposed to cancer cells and not treated

CC#C[C@]1(O)CC[C@H]2[C@@H]3CCC4=CC(=O)CCC4=C3[C@@H](c3ccc(N(C)C)cc3)C[C@@]21C [RU486, mifepristone]
HLA-DR expression (MFI of HLA-DR staining, FIG. 1): more HLA-DR expression than cells exposed to cancer cells and not treated with RU486
